Results on three compounds are retold here after patent US4929739A, “Complexes of tellurium and selenium derivatives” (Bar-Ilan University, priority 1988, dated 1990).

Where two headings read alike, the source gives them in different places.

One data set deals with West Nile virus. The data set is described as follows: West Nile virus infections in mice. To be noted: 10 μg/day/mouse. In kind it is in vivo. On the procedure:
(§1) Preliminary toxicity studies in mice have established an LD50 of 300 μg./25 g of body weight in 6 week old mice for the compound of Example 1. The compounds may be used as anti-bacterial or anti-viral agents in plants or in animals. Virus infections such as West Nile virus infections in mice are susceptible to the compound of the Example 1 at a dose of 10 μg/day/mouse. Plant bacterial infections such as crown gall caused by Agrobacterium tumefaciens may be treated or prevented by the application of a 0.1% solution of compounds of the invention.

Data set [1] can be described thus: preliminary toxicity studies in mice. In kind it is in vivo. The note with it: 6 week old mice. On the procedure: as §1
Another data set relates to IL-2 producer cells. Put plainly: proliferation of IL-2 producer cells. In kind it is cell-based.
Data set [2] concerns producer T-cell lymphocytes. Put plainly: lymphokine production in producer T-cell lymphocytes in vivo. The note with it: alone.
Data set [3] has as its system producer T-cell lymphocytes. The data set is described as follows: lymphokine production in producer T-cell lymphocytes in vitro. It counts as cell-based. To be noted: alone.
In another data set the test system is IL-2. Put plainly: mouse spleen assay, IL-2 activity of supernatants (tritiated thymidine). It counts as cell-based, mouse (male Balb-c). The note with it: for IL-2 activity, 12.5% supernatant / IL-2 activity, 25% supernatant: Table 1, PMA, 96 h; for IL-2 production, supernatant 12.5% / IL-2 production, supernatant 25%: Table 2; for IL-2 activity, 12.5% supernatant / IL-2 production, supernatant 12.5%: 12.5% supernatant; for IL-2 activity, 25% supernatant / IL-2 production, supernatant 25%: 25% supernatant. On the procedure:
Two citrate buffer solutions are prepared by combining aqueous 0.05M sodium citrate with 0.05M citric acid or 0.1M sodium citrate and 0.1M citric acid. […] To these solutions are added up to 5 mg/ml of ammomium trichloro (dioxoethylene-0,0') tellurate.
After storage at various temperatures for about two and a half months, dilutions of these solutions were prepared and a mouse spleen assay was performed as follows:
Spleens were removed from male Balb-c mice 6 to 8 weeks of age. The spleen cells were pushed through stainless steel 60 mesh (U.S. standard) nets resting in […] Petri dishes containing PBS in order to separate the cells. The cells were then collected into centrifuge tubes and spun at 1000 rpm for 10 minutes. The supernatant was discarded and cells were treated with 5 ml of hypotonic buffer (0.15 MNH4 Cl; 0.01M KHCO3 dissolved in double distilled water, pH 7.2) for exactly two minutes. Thereafter, PBS* was added to the cells amd the test tubes were centrifuged for 10 minutes at 1000 rpm. The cells were rinsed twice and counted in a heamocytometer using trypan blue to test for viability. The cells were brought to a concentration of 10^7 viable cells/ml. […] Thereafter, the cells were incubated at 37° C., 7.5% CO2 for 96 h. Supernatants were collected and assayed for IL-2 activity using tritiated thymidine (^3 H-TdR).
A 0.04M tartrate buffer in also prepared using the same procedures. The complex is formed by adding ammonium trichloro (dioxoethylene-0,0'-) tellurate to the aqueous tartrate buffer. The effectiveness of the complex in stimulating IL-2 production was determined in the mouse spleen assay.

Data set [4] can be described thus: solubilization in aqueous buffer. It counts as physicochemical. An excerpt: The complexes of the invention may be formed by contacting a compound of Formulas A-E with a non-toxic pharmaceutically acceptable complexing agent which forms a water soluble complex with said tellurium or selenium compound. Suitable complexing agents include hydroxy polycarboxylic acids, polycarboxylic acids or polyhydroxy polycarboxylic acids. Generally, it is preferred to prepare the complexes of the invention by contacting a compound of Formulas A-E with a buffer system containing either citric acid or tartaric acid and a corresponding alkali metal salt thereof, such as sodium or potassium.
Generally equimolar amounts of acids and the corresponding alkali metal salts may be combined in aqueous solutions with a compound of Formulas A-E to form the complex of the invention; 0.05M-0.5M concentration of the buffer are preferred but higher or lower amounts may be utilized provided that the concentration is adequate to dissolve the particular compound of Formulas A-E. Higher molarities may be used to provide concentrates that may be diluted prior to IV administration or to prepare other dosage forms. The amount of the compound of Formulas A-E is dependent on the ultimate use of the product. […] This is in contrast to the phosphate buffer (PBS) from which only about 200 mcg/ml of ammonium trichloro (dioxoethylene-0,0') tellurate can be solubilized. […]

Another data set concerns human mononuclear cells. The data set is described as follows: stimulation of human mononuclear cells, proliferation (3H-methylthymidine). To be noted: Table 3. The arrangement: unit not given here. It counts as cell-based. The procedure: Citrate and tartrate complexes of ammonium trichloro (dioxoethylene-0,0') tellurate are tested for the stimulation of human mononuclear cells.
Venous whole blood (with heparin; Evans 10 IU/ml blood) is diluted with RPMI in a ratio of 1:1. […] Each tube is provided with 3 ml Lymphoprep and 6 to 7 ml diluted blood. The tubes are centrifuged 30 minutes at 1600 rpm at room temperature. After the centrifugation mononuclear cells are collected from the interphase fraction and washed with RPMI three times. The cells are resuspended in RPMI, counted on a hemocytometer, using trypan blue to test for viability and then are brought to a concentration of […] in enriched RPMI. The concentrations set forth in Table 3 were added in a volume of 10% of cell mixture. Aliquots of 0.2 ml from each sample were placed in wells of microplates (NUNC) (triplicates). The microplates are incubated for 72 hours at 37° C. after which ^ 3 H-methylthymidine, 1U Ci/well (Nuclear Research Center, Israel) are added to the cultures. Cells were further incubated overnight and harvested with a cell harvester.

As to `Cl[Te]1(Cl)(Cl)OCCO1.N` [Example 1, ammomium trichloro (dioxoethylene-0,0') tellurate], the “susceptibility of West Nile virus infections” value in the data set on West Nile virus is reported as “susceptible”. For the same compound, in data set [1], the LD50 is reported as 300 μg./25 g of body weight.
On to `O=[Te]=O` [TeO2], for which the “proliferation in producing cells such as IL-2 producer cells” value in the data set with IL-2 producer cells was “will not cause proliferation”. In addition, the “induction of lymphokine production in vivo” value in data set [2] is given as “will induce lymphokine production”. In data set [3], the “induction of lymphokine production in vitro” value is on record as “will induce lymphokine production”.
On to `Cl[TeH]1(Cl)(Cl)OCCO1` [ammonium trichloro (dioxoethylene-0,0') tellurate], for which the “IL-2 activity, 12.5% supernatant” value is 1865 cpm in the data set on IL-2 (0.05 μg/ml), 28035 cpm in the data set with IL-2 (0.1 μg/ml) and 35270 cpm in the data set with IL-2 (0.5 μg/ml). The “IL-2 activity, 25% supernatant” value was determined as 3762 cpm with IL-2 (0.05 μg/ml), 44378 cpm with IL-2 (0.1 μg/ml) and 43833 cpm in the data set with IL-2 (0.5 μg/ml ammonium trichloro(dioxoethylene) tellurate). The “IL-2 production, supernatant 12.5%” value is 1865 cpm in the data set with IL-2 (0.05 μg/ml), 28035 cpm in the data set on IL-2 (0.1 μg/ml) and 35270 cpm with IL-2 (0.5 μg/ml). Further, the “IL-2 production, supernatant 25%” value was 44378 cpm in the data set on IL-2 (0.1 μg/ml), 43833 cpm in the data set on IL-2 (0.5 μg/ml) and 3762 cpm in the data set with IL-2. Moreover, the solubility in data set [4] (citrate buffer, aqueous buffer, read-out: concentration solubilized in citrate) is not below 5000 µg/mL; in data set [4] (phosphate buffer (pbs), read-out: concentration solubilized in phosphate buffer), approximately 200 µg/mL. Also, the “proliferation of mononuclear cells” value came out at 6663 with human mononuclear cells (0.05 μg/ml, PMA 0.5 ng/ml cells); 12923 in the data set with human mononuclear cells (0.05 μg/ml, PMA 1.5 ng/ml cells); 19810 in the data set on human mononuclear cells (0.1 μg/ml, PMA 0.5 ng/ml cells); 42857 in the data set on human mononuclear cells (0.1 μg/ml, PMA 1.5 ng/ml cells); 2945 with human mononuclear cells (0.5 μg/ml, PMA 0.5 ng/ml cells); 3287 with human mononuclear cells (0.5 μg/ml, PMA 1.5 ng/ml cells).
